This note sets out measurements from US20060069132A1, “Azolecarboxamide herbicides” (priority 2004, published 2006).

Holding throughout (test): Test A pre-/postemergence herbicide test
Experiment [1] deals with large crabgrass. It counts as in vivo, Digitaria sanguinalis. The source says: (§1) Seeds of plant species selected from barnyardgrass (Echinochloa crus-galli (L.) Beauv.), downy bromegrass (Bromus tectorum L.), large crabgrass (Digitaria sanguinalis (L.) Scop.), giant foxtail (Setaria faberi Herrm.), morningglory (Ipomoea spp.), redroot pigweed (Amaranthus retroflexus L.) and velvetleaf (Abutilon theophrasti Medik.) were planted into a sandy loam soil and treated preemergence with a directed soil spray using test chemicals formulated in a non-phytotoxic solvent mixture which included a surfactant. At the same time plants selected from these species were also treated postemergence by spraying to runoff with test chemicals formulated.
(§2) Plants ranged in height from 2 to 10 cm and were in the one- to two-leaf stage for the postemergence treatment. Treated plants and untreated controls were maintained in a greenhouse for approximately ten days, after which time all treated plants were compared to untreated controls and visually evaluated for injury. Plant response ratings, summarized in Table A, are based on a 0 to 100 scale where 0 is no effect and 100 is complete control. A dash (-) response means no test results.

In experiment [2] the test system is giant foxtail. Type of experiment: in vivo, Setaria faberi.
Excerpt: as §1, §2

The test system of experiment [3] is morningglory. It counts as in vivo, Ipomoea spp.
Excerpt: as §1, §2

Experiment [4] concerns velvetleaf. Type of experiment: in vivo, Abutilon theophrasti.
Excerpt: as §1, §2

The test system of experiment [5] is barnyardgrass. Type of experiment: in vivo, Echinochloa crus-galli.
Excerpt: as §1, §2

Experiment [6] has as its system redroot pigweed. Type of experiment: in vivo, Amaranthus retroflexus.
Excerpt: as §1, §2

Where [7] appears, read: Postemergence, 125 g ai/ha, 0 to 100 scale, 0 no effect, 100 complete control.
[8] abbreviates: Postemergence, 500 g ai/ha, 0 to 100 scale, 0 no effect, 100 complete control.
The mark [9] stands for this setting: preemergence, 125 g ai/ha, visual injury, 0 to 100 scale (0 no effect, 100 complete control).
Setting [10] is: preemergence, 500 g ai/ha, visual injury, 0 to 100 scale (0 no effect, 100 complete control).
The mark [11] stands for this setting: Postemergence, 2000 g ai/ha, 0 to 100 scale, 0 no effect, 100 complete control.
[12] abbreviates: Preemergence, 2000 g ai/ha, visual rating, 0 to 100 scale (0 no effect, 100 complete control).
Setting [13] is: Preemergence, 500 g ai/ha, visual rating, 0 to 100 scale (0 no effect, 100 complete control).

For the molecule `CCNC(=O)c1ccnc(NC(=O)c2cn(C(C)(C)C)nc2CC)c1` [Compound 452], the “Crabgrass, Large plant response rating” value in experiment [1] (setting [7]) came to 10; in experiment [1] (setting [8]), 20; in experiment [1] (setting [9]), 20; in experiment [1] (setting [10]) it was 45. Moreover, the “Foxtail, Giant plant response rating” value stood at 10 in experiment [2] (setting [7]), 25 in experiment [2] (setting [8]), 5 in experiment [2] (setting [9]) and 45 in experiment [2] (setting [10]). Further, the “Morningglory plant response rating” value in experiment [3] (setting [7]) was determined as 20; in experiment [3] (setting [8]), 30; in experiment [3] (setting [9]), 0; in experiment [3] (setting [10]), 10. Further, the “Velvetleaf plant response rating” value was 20 in experiment [4] (setting [7]), 30 in experiment [4] (setting [8]), 0 in experiment [4] (setting [9]) and 5 in experiment [4] (setting [10]). In addition, the “Barnyardgrass plant response rating” value in experiment [5] (setting [7]) is given as 10; in experiment [5] (setting [8]), 35; in experiment [5] (setting [9]), 15; in experiment [5] (setting [10]) it was 70. Besides, the “Pigweed plant response rating” value in experiment [6] (setting [7]) was found to be 20; in experiment [6] (setting [8]), 70; in experiment [6] (setting [9]) it was 10; in experiment [6] (setting [10]), 65.
For `CCOC(=O)c1ccc(F)c(NC(=O)c2nc(C(C)(C)C)nn2CC)c1` [Compound 451], the “Crabgrass, Large plant response rating” value in experiment [1] (setting [7]) came out at 10; in experiment [1] (setting [8]), 30; in experiment [1] (setting [9]) it was 5; in experiment [1] (setting [10]) it was 25. Further, the “Foxtail, Giant plant response rating” value amounted to 10 in experiment [2] (setting [7]), 20 in experiment [2] (setting [8]), 5 in experiment [2] (setting [9]) and 45 in experiment [2] (setting [10]). For the same molecule, the “Morningglory plant response rating” value was 20 in experiment [3] (setting [7]), 20 in experiment [3] (setting [8]), 0 in experiment [3] (setting [9]) and 5 in experiment [3] (setting [10]). Besides, the “Velvetleaf plant response rating” value in experiment [4] (setting [7]) is listed as 20; in experiment [4] (setting [8]), 30; in experiment [4] (setting [9]) it was 0; in experiment [4] (setting [10]), 20. In addition, the “Barnyardgrass plant response rating” value in experiment [5] (setting [7]) amounted to 10; in experiment [5] (setting [8]), 20; in experiment [5] (setting [9]), 15; in experiment [5] (setting [10]), 55. In addition, the “Pigweed plant response rating” value in experiment [6] (setting [7]) was determined as 10; in experiment [6] (setting [8]) it was 50; in experiment [6] (setting [9]) it was 0; in experiment [6] (setting [10]) it was 0.
For `CCNC(=O)c1cccc(NC(=O)c2cn(CC)nc2C(F)(F)F)c1` [Compound 172], the “Crabgrass, Large plant response rating” value in experiment [1] (setting [8]), in experiment [1] (setting [12]) and in experiment [1] (setting [10]) was 0 throughout. Also, the “Plant response rating, Crabgrass, Large” value in experiment [1] (setting [11]) was 0. For the same molecule, the “Foxtail, Giant plant response rating” value in experiment [2] (setting [8]), in experiment [2] (setting [12]) and in experiment [2] (setting [10]) was 0 throughout. Moreover, the “Plant response rating, Foxtail, Giant” value in experiment [2] (setting [11]) was 0. For the same molecule, the “Morningglory plant response rating” value in experiment [3] (setting [8]) is on record as 10; in experiment [3] (setting [12]) it was 0; in experiment [3] (setting [10]), 0. For the same molecule, the “Plant response rating, Morningglory” value in experiment [3] (setting [11]) was found to be 10. Besides, the “Velvetleaf plant response rating” value turned out to be 5 in experiment [4] (setting [8]), 0 in experiment [4] (setting [12]) and 0 in experiment [4] (setting [10]). Further, the “Plant response rating, Velvetleaf” value in experiment [4] (setting [11]) was determined as 15. Also, the “Barnyardgrass plant response rating” value in experiment [5] (setting [8]), in experiment [5] (setting [12]) and in experiment [5] (setting [10]) was 0 each time. Also, in experiment [5] (setting [11]), the “Plant response rating, Barnyardgrass” value stood at 0. Also, the “Pigweed plant response rating” value in experiment [6] (setting [8]) came to 25; in experiment [6] (setting [12]), 40; in experiment [6] (setting [10]) it was 0. Further, the “Plant response rating, Pigweed” value in experiment [6] (setting [11]) is given as 60.
Take `Cn1nc(C(C)(C)C)cc1C(=O)Nc1cccc2c1CCCC2=NO` [Compound 116]: the “Crabgrass, Large plant response rating” value in experiment [1] (setting [8]) is on record as 0; in experiment [1] (setting [13]) it was 45; in experiment [1] (setting [12]), 80. Moreover, in experiment [1] (setting [11]), the “Plant response rating, Crabgrass, Large” value is given as 10. In addition, the “Foxtail, Giant plant response rating” value in experiment [2] (setting [8]) amounted to 0; in experiment [2] (setting [13]), 20; in experiment [2] (setting [12]), 35. For the same molecule, the “Plant response rating, Foxtail, Giant” value in experiment [2] (setting [11]) is recorded as 0. In addition, the entries for the “Morningglory plant response rating” value in experiment [3] (setting [8]), in experiment [3] (setting [13]) and in experiment [3] (setting [12]) were 0, 0 and 10, respectively. In addition, the “Plant response rating, Morningglory” value in experiment [3] (setting [11]) is reported as 0. Moreover, the “Velvetleaf plant response rating” value in experiment [4] (setting [8]), in experiment [4] (setting [13]) and in experiment [4] (setting [12]) was 0 throughout. For the same molecule, the “Plant response rating, Velvetleaf” value in experiment [4] (setting [11]) was found to be 0. The “Barnyardgrass plant response rating” value was found to be 0 in experiment [5] (setting [8]), 35 in experiment [5] (setting [13]) and 70 in experiment [5] (setting [12]). Also, the “Plant response rating, Barnyardgrass” value in experiment [5] (setting [11]) is 25. Also, the “Pigweed plant response rating” value in experiment [6] (setting [8]), in experiment [6] (setting [13]) and in experiment [6] (setting [12]) was 0 throughout. Also, the “Plant response rating, Pigweed” value in experiment [6] (setting [11]) is recorded as 0.
